Source: ChEMBL document CHEMBL5316263, “Structure-Based Discovery of Selective Histone Deacetylase 8 Degraders with Potent Anticancer Activity” (J Med Chem, 2023)
Calls of active or inactive are those of the source. No cut-off for these calls is given here.

What was measured:
A549 [1] = experiment: Induction of cell cycle arrest in human A549 cells assessed as accumulation of cells at G2/M phase at 5 uM measured after 48 hrs by propidium iodide staining based flow cytometry analysis; format: functional
A549 [2] = experiment: Effect on CYP1B1 gene in human A549 cells at 10 uM measured after 20 hrs by RNA sequencing analysis; format: functional, cell-based
A549 [3] = experiment: Induction of apoptosis in human A549 cells assessed as late apoptotic cells at 2.5 uM incubated for 72 hrs by annexin V-FITC staining based flow cytometry (reference value: 0.048%); format: functional
A549 [4] = experiment: Induction of apoptosis in human A549 cells assessed as late apoptotic cells at 1.25 uM incubated for 72 hrs by annexin V-FITC staining based flow cytometry (reference value: 0.048%); format: functional
[5] = biological target: T1, Protein cereblon/Histone deacetylase 8 (Homo sapiens) (UniProt Q9BY41+Q96SW2); experiment: Protac activity at CRBN/HDAC8 in human A549 cells assessed as degradation of HDAC8 at 2 uM measured after 20 hrs by Western blot analysis relative to control; format: cell-based
A549 [6] = experiment: Inhibition of colony formation in human A549 cells assessed as reduction in cell proliferation at 2.5 to 10 uM measured after 7 to 10 days with media replenishment along with compound for every 3 days by crystal violet staining based analysis; format: functional; details: dose 2.5-10 µM, time 7-10 day
HCT-116 = experiment: Inhibition of colony formation in human HCT-116 cells assessed as reduction in cell proliferation at 2.5 to 10 uM measured after 7 to 10 days with media replenishment along with compound for every 3 days by crystal violet staining based analysis; format: functional; details: dose 2.5-10 µM, time 7-10 day
A549 [7] = experiment: Effect on TIPARP gene in human A549 cells at 10 uM measured after 20 hrs by RNA sequencing analysis; format: functional, cell-based
A549 [8] = experiment: Effect on DKK1 gene in human A549 cells at 10 uM measured after 20 hrs by RNA sequencing analysis; format: functional, cell-based
A549 [9] = experiment: Effect on MAPK4 gene in human A549 cells at 10 uM measured after 20 hrs by RNA sequencing analysis; format: functional, cell-based
A549 [10] = experiment: Effect on FSTL4 gene in human A549 cells at 10 uM measured after 20 hrs by RNA sequencing analysis; format: functional, cell-based
A549 [11] = experiment: Effect on HDAC8 mRNA level in human A549 cells at 10 uM measured after 20 hrs by RNA sequencing analysis; format: functional, cell-based
A549 [12] = experiment: Downregulation of RIMKLB in human A549 cells measured after 20 hrs by proteomic analysis; format: functional, cell-based
A549 [13] = experiment: Induction of apoptosis in human A549 cells assessed as viable cells at 1.25 uM incubated for 72 hrs by annexin V-FITC staining based flow cytometry (reference value: 99.9%); format: functional; details: read-out: Activity
A549 [14] = experiment: Induction of apoptosis in human A549 cells assessed as viable cells at 5 uM incubated for 72 hrs by annexin V-FITC staining based flow cytometry (reference value: 99.9%); format: functional; details: read-out: Activity
A549 [15] = experiment: Induction of apoptosis in human A549 cells assessed as necrotic cells at 1.25 uM incubated for 72 hrs by annexin V-FITC staining based flow cytometry relative to control; format: functional
A549 [16] = experiment: Induction of apoptosis in human A549 cells assessed as necrotic cells at 2.5 uM incubated for 72 hrs by annexin V-FITC staining based flow cytometry relative to control; format: functional
A549 [17] = experiment: Induction of apoptosis in human A549 cells assessed as necrotic cells at 10 uM incubated for 72 hrs by annexin V-FITC staining based flow cytometry relative to control; format: functional
A549 [18] = experiment: Induction of apoptosis in human A549 cells assessed as necrotic cells at 20 uM incubated for 72 hrs by annexin V-FITC staining based flow cytometry relative to control; format: functional
A549 [19] = experiment: Induction of apoptosis in human A549 cells assessed as upregulation of cleaved caspase-3 level measured after 48 hrs by Western blot analysis; format: functional, cell-based; details: dose 1.25-20 µM
A549 [20] = experiment: Induction of apoptosis in human A549 cells assessed as upregulation of cleaved PARP level measured after 48 hrs by Western blot analysis; format: functional, cell-based; details: dose 1.25-20 µM
A549 [21] = experiment: Induction of apoptosis in human A549 cells assessed as necrotic cells at 5 uM by annexin V-FITC staining based flow cytometry (reference value: 0%); format: functional
A549 [22] = experiment: Induction of apoptosis in human A549 cells assessed as necrotic cells at 5 uM incubated with compound followed by irradiation by annexin V-FITC staining based flow cytometry (reference value: 2.02%); format: functional
[23] = biological target: Protein cereblon/Histone deacetylase 1 (Homo sapiens) (UniProt Q13547+Q96SW2); experiment: Protac activity at CRBN/HDAC1 in human A549 cells assessed as reduction in HDAC1 protein level at 0.1 to 10 uM by Western blot analysis; format: cell-based; details: dose 0.1-10 µM
[24] = biological target: T1, Protein cereblon/Histone deacetylase 8 (Homo sapiens); experiment: Protac activity at CRBN/HDAC8 in human A549 cells assessed as maximum degradation at 10 uM incubated for 20 hrs by ELISA method relative to control; format: cell-based
[25] = biological target: T1, Protein cereblon/Histone deacetylase 8 (Homo sapiens); experiment: Protac activity at CRBN/HDAC8 in human HBEC3-KT cells at 0.1 to 10 uM measured after 20 hrs by Western blot analysis; format: cell-based; details: dose 0.1-10 µM
A549 [26] = experiment: Inhibition of DNA damage repair in human A549 cells assessed as reduction in number of gamma-H2AX foci at 5 uM incubated for 24 hrs followed by irradiation for 4 hrs by immunofluorescence staining based analysis; format: functional, cell-based
A549 [27] = experiment: Inhibition of DNA damage repair in human A549 cells assessed as reduction in Ku70 protein level at 5 uM incubated for 24 hrs by immunofluorescence staining based analysis; format: functional, cell-based
A549 [28] = experiment: Inhibition of DNA damage repair in human A549 cells assessed as reduction in Ku80 protein level at 5 uM incubated for 24 hrs by immunofluorescence staining based analysis; format: functional, cell-based
A549 [29] = experiment: Antitumor activity against human A549 cells xenografted in NOD/SCID mouse at 5 mg/kg, ip administered every 5 days measured at day 30; format: functional, organism-based; details: time 30.0 day
[30] = Toxicity in NOD/SCID mouse xenografted with human A549 cells assessed as change in body weight loss at 5 mg/kg, ip administered every 5 days measured at day 30; format: organism-based; details: in vivo, 720 h, time 30 day
[31] = biological target: T1, Protein cereblon/Histone deacetylase 8 (Homo sapiens); experiment: In vivo protac activity at CRBN/HDAC8 in human A549 cells xenografted in NOD/SCID mouse assessed as degradation of HDAC8 at 5 mg/kg, ip administered every 5 days measured at day 30 by Western blot analysis; format: functional, organism-based; details: time 30.0 day
[32] = biological target: T1, Protein cereblon/Histone deacetylase 8 (Homo sapiens); experiment: In vivo protac activity at CRBN/HDAC8 in human A549 cells xenografted in NOD/SCID mouse assessed as degradation of HDAC8 at 5 mg/kg, ip administered every 5 days measured at day 30 under irradiation condition by Western blot analysis; format: functional, organism-based; details: time 30.0 day
A549 [33] = experiment: Antitumor activity against human A549 cells xenografted in NOD/SCID mouse assessed as decrease in HDAC8 expression at 5 mg/kg, ip administered every 5 days measured at day 30 under irradiation condition by […] analysis; format: functional, organism-based; details: time 30.0 day
A549 [34] = experiment: Antitumor activity against human A549 cells xenografted in NOD/SCID mouse assessed as increase in gamma-H2AX expression at 5 mg/kg, ip administered every 5 days measured at day 30 under irradiation condition by […] analysis; format: functional, organism-based; details: time 30.0 day

T1 sequence (Q96SW2 whole entry, looked up): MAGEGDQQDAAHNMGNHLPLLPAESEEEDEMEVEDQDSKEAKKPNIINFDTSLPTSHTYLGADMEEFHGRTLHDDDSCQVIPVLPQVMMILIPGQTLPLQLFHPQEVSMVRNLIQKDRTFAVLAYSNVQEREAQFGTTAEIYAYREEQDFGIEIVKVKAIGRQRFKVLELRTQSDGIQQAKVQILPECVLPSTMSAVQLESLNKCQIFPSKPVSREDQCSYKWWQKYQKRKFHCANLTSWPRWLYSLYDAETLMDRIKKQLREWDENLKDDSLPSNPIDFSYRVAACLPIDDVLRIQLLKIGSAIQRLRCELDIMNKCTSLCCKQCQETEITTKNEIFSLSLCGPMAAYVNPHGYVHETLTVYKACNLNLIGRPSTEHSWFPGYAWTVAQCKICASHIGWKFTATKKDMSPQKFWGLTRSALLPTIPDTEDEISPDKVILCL
T1 sequence (Q9BY41 whole entry, looked up): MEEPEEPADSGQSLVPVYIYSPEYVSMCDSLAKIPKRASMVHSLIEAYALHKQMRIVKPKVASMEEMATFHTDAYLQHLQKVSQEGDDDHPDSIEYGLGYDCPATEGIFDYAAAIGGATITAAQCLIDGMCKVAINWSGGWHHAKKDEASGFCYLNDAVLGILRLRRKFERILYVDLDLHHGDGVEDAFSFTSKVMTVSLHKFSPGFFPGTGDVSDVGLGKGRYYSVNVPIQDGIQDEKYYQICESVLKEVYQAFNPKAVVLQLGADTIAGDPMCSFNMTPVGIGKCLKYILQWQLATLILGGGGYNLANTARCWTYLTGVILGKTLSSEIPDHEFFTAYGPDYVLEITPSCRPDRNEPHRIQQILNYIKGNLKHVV
Chain of Protein cereblon/Histone deacetylase 1 (Homo sapiens) (Q13547 whole entry, looked up): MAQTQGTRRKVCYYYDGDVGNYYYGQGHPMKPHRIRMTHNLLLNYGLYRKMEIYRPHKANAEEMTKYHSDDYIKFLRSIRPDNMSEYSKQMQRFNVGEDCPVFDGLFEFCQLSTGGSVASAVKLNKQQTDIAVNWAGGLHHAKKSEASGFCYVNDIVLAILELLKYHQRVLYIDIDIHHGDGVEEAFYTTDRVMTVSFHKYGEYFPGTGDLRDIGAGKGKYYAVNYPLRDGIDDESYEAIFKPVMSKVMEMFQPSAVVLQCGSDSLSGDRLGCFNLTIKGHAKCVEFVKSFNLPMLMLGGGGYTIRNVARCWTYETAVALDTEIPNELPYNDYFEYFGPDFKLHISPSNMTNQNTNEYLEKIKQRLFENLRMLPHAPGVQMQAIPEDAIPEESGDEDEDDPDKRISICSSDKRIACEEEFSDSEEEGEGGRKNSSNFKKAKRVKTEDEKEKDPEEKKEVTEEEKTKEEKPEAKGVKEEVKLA
Chain of Protein cereblon/Histone deacetylase 1 (Homo sapiens) (Q96SW2 whole entry, looked up): as the sequence (Q96SW2 whole entry, looked up) above

For O=C1CCC(N2C(=O)c3cccc(NCc4cn(CCOCCOc5ccc(Cn6ccc7ccc(C(=O)NO)cc76)cc5)nn4)c3C2=O)C(=O)N1 (stereo not given), the Activity (A549 [1]) was “Active”, the Activity (A549 [2]) was “Active” and the Activity (A549 [3]) was 15.3%. For the same molecule, the Activity (A549 [4]) was 7.4%, the Activity [5] was 85.4% and the inhibition (A549 [6]) was “Active”. The inhibition (HCT-116) was “Active”, the Activity (A549 [7]) was “Active” and the Activity (A549 [8]) was “Active”. For the same molecule, the Activity (A549 [9]) was “Active”, the Activity (A549 [10]) was “Active” and the Activity (A549 [11]) was “inactive”. For the same molecule, the Activity (A549 [12]) was “Active”, the viability at 1.25 µM (A549 [13]) was 68.2% and the viability at 5 µM (A549 [14]) was 54.9%. The Activity (A549 [15]) was 0.1%, the Activity (A549 [16]) was 0.57% and the Activity (A549 [17]) was 1.52%. For the same molecule, the Activity (A549 [18]) was 0%, the Activity (A549 [19]) was “Dose-Dependent Effect” and the Activity (A549 [20]) was “Dose-Dependent Effect”. The Activity (A549 [21]) was 2.37%, the Activity (A549 [22]) was 0.75% and the Activity [23] was “inactive”. For the same molecule, the Emax [24] was greater than 95%, the Activity [25] was “inactive” and the inhibition (A549 [26]) was “Active”. The inhibition (A549 [27]) was “Active”, the inhibition (A549 [28]) was “Active” and the Activity (A549 [29]) was “Active”. For the same molecule, the Activity [30] was “Non-Toxic”, the Activity [31] was “Active” and the Activity [32] was “Active”. For the same molecule, the Activity (A549 [33]) was “Active” and the Activity (A549 [34]) was “Active”.
